Measurements taken from the NIST ThermoML archive (doi:10.1016/j.jct.2014.12.022).
Numbers after ± are expanded uncertainties.

Test: molar heat capacity at constant pressure; xn = mol fraction of the nth substance listed
Settings: 100 kPa, Liquid, Small sample (50 mg) DSC

Cc1cccc(Cl)c1 [3-chlorotoluene] + c1ccccc1
molar heat capacity at constant pressure [J/K/mol]
Settings	293.15 K	298.15 K	303.15 K
x2 = 0.1056	169.49 ± 3.4	170.68 ± 3.4	171.79 ± 3.4
x2 = 0.1477	167.26 ± 3.4	168.43 ± 3.4	169.51 ± 3.4
x2 = 0.1746	165.85 ± 3.3	167.02 ± 3.3	168.08 ± 3.4
x2 = 0.2065	164.21 ± 3.3	165.37 ± 3.3	166.4 ± 3.3
x2 = 0.2347	162.78 ± 3.3	163.93 ± 3.3	164.95 ± 3.3
x2 = 0.2856	160.26 ± 3.2	161.4 ± 3.2	162.4 ± 3.2
x2 = 0.3148	158.85 ± 3.2	160 ± 3.2	160.98 ± 3.2
x2 = 0.3452	157.42 ± 3.1	158.56 ± 3.2	159.53 ± 3.2
x2 = 0.3899	155.37 ± 3.1	156.52 ± 3.1	157.48 ± 3.1
x2 = 0.4132	154.33 ± 3.1	155.48 ± 3.1	156.44 ± 3.1
x2 = 0.4499	152.73 ± 3	153.89 ± 3.1	154.85 ± 3.1
x2 = 0.4967	150.76 ± 3	151.94 ± 3	152.9 ± 3.1
x2 = 0.5231	149.69 ± 3	150.88 ± 3	151.84 ± 3
x2 = 0.5505	148.6 ± 3	149.81 ± 3	150.77 ± 3
x2 = 0.5836	147.32 ± 3	148.55 ± 3	149.52 ± 3
x2 = 0.6335	145.46 ± 2.9	146.73 ± 2.9	147.72 ± 3
x2 = 0.6625	144.42 ± 2.9	145.71 ± 2.9	146.71 ± 2.9
x2 = 0.6988	143.15 ± 2.9	144.47 ± 2.9	145.5 ± 2.9
x2 = 0.7207	142.41 ± 2.9	143.74 ± 2.9	144.78 ± 2.9
x2 = 0.7756	140.58 ± 2.8	141.98 ± 2.8	143.06 ± 2.9
x2 = 0.8045	139.65 ± 2.8	141.08 ± 2.8	142.18 ± 2.8
x2 = 0.8466	138.32 ± 2.8	139.8 ± 2.8	140.94 ± 2.8
x2 = 0.8845	137.14 ± 2.7	138.67 ± 2.8	139.84 ± 2.8
x2 = 0.9197	136.05 ± 2.7	137.63 ± 2.8	138.84 ± 2.8

Cc1ccc(Cl)cc1 [4-chlorotoluene] + c1ccccc1
molar heat capacity at constant pressure [J/K/mol]
Settings	293.15 K	298.15 K	303.15 K
x2 = 0.0912	170.37 ± 3.4	172.42 ± 3.5	174.55 ± 3.5
x2 = 0.1226	168.6 ± 3.4	170.58 ± 3.4	172.63 ± 3.5
x2 = 0.1657	166.22 ± 3.3	168.12 ± 3.4	170.06 ± 3.4
x2 = 0.2012	164.3 ± 3.3	166.15 ± 3.3	168.01 ± 3.4
x2 = 0.2374	162.4 ± 3.2	164.19 ± 3.3	165.99 ± 3.3
x2 = 0.2675	160.86 ± 3.2	162.61 ± 3.2	164.35 ± 3.3
x2 = 0.3135	158.57 ± 3.2	160.26 ± 3.2	161.93 ± 3.2
x2 = 0.3456	157.02 ± 3.1	158.69 ± 3.2	160.3 ± 3.2
x2 = 0.3702	155.87 ± 3.1	157.51 ± 3.1	159.08 ± 3.2
x2 = 0.4231	153.47 ± 3.1	155.06 ± 3.1	156.56 ± 3.1
x2 = 0.4657	151.63 ± 3	153.19 ± 3.1	154.63 ± 3.1
x2 = 0.5093	149.83 ± 3	151.35 ± 3	152.74 ± 3
x2 = 0.5346	148.82 ± 3	150.33 ± 3	151.68 ± 3
x2 = 0.5723	147.36 ± 3	148.85 ± 3	150.16 ± 3
x2 = 0.6022	146.25 ± 2.9	147.72 ± 3	148.99 ± 3
x2 = 0.6357	145.04 ± 2.9	146.49 ± 2.9	147.73 ± 3
x2 = 0.6701	143.84 ± 2.9	145.27 ± 2.9	146.49 ± 2.9
x2 = 0.6989	142.86 ± 2.9	144.29 ± 2.9	145.48 ± 2.9
x2 = 0.7224	142.08 ± 2.8	143.51 ± 2.9	144.68 ± 2.9
x2 = 0.7564	140.98 ± 2.8	142.41 ± 2.9	143.56 ± 2.9
x2 = 0.8096	139.31 ± 2.8	140.75 ± 2.8	141.89 ± 2.8
x2 = 0.8213	138.95 ± 2.8	140.4 ± 2.8	141.54 ± 2.8
x2 = 0.8543	137.95 ± 2.8	139.41 ± 2.8	140.56 ± 2.8
x2 = 0.8886	136.92 ± 2.7	138.42 ± 2.8	139.57 ± 2.8

CN1CCCC1=O [N-methylpyrrolidone] + c1ccccc1
molar heat capacity at constant pressure [J/K/mol]
Settings	293.15 K	298.15 K	303.15 K
x1 = 0.0787	137.73 ± 2.8	139.51 ± 2.8	140.9 ± 2.8
x1 = 0.1156	139.63 ± 2.8	141.42 ± 2.8	142.83 ± 2.9
x1 = 0.168	142.27 ± 2.9	144.04 ± 2.9	145.46 ± 2.9
x1 = 0.1983	143.75 ± 2.9	145.51 ± 2.9	146.92 ± 2.9
x1 = 0.2249	145.03 ± 2.9	146.77 ± 2.9	148.18 ± 3
x1 = 0.2634	146.83 ± 2.9	148.55 ± 3	149.94 ± 3
x1 = 0.3065	148.78 ± 3	150.46 ± 3	151.83 ± 3
x1 = 0.3325	149.91 ± 3	151.58 ± 3	152.93 ± 3.1
x1 = 0.3617	151.15 ± 3	152.8 ± 3.1	154.13 ± 3.1
x1 = 0.4106	153.13 ± 3.1	154.74 ± 3.1	156.04 ± 3.1
x1 = 0.4367	154.13 ± 3.1	155.73 ± 3.1	157.02 ± 3.1
x1 = 0.4635	155.13 ± 3.1	156.71 ± 3.1	157.98 ± 3.2
x1 = 0.5008	156.45 ± 3.1	158.01 ± 3.2	159.26 ± 3.2
x1 = 0.5598	158.37 ± 3.2	159.91 ± 3.2	161.13 ± 3.2
x1 = 0.5952	159.42 ± 3.2	160.95 ± 3.2	162.15 ± 3.2
x1 = 0.6245	160.24 ± 3.2	161.75 ± 3.2	162.94 ± 3.3
x1 = 0.6616	161.18 ± 3.2	162.69 ± 3.2	163.85 ± 3.3
x1 = 0.7099	162.28 ± 3.2	163.76 ± 3.3	164.9 ± 3.3
x1 = 0.7494	163.06 ± 3.3	164.51 ± 3.3	165.62 ± 3.3
x1 = 0.7748	163.51 ± 3.3	164.93 ± 3.3	166.02 ± 3.3
x1 = 0.8011	163.92 ± 3.3	165.31 ± 3.3	166.38 ± 3.3
x1 = 0.8319	164.35 ± 3.3	165.68 ± 3.3	166.72 ± 3.3
x1 = 0.8767	164.84 ± 3.3	166.08 ± 3.3	167.06 ± 3.3
x1 = 0.9152	165.15 ± 3.3	166.28 ± 3.3	167.2 ± 3.3
